Assay results as given in patent US12673946B2, “Pyrimidin-4(3H)-one derivatives as TRPV4 antagonists” (RaQualia Pharma Inc., priority 2020, dated 2026).

Biological target: T1, human TRPV4 (Homo sapiens, UniProt Q9HBA0)
T1 construct: host or cells: tetracycline-inducible Flp-In T-REx 293 cells
Assay: Hypotonicity-induced Ca2+ influx (Fluo-4, FDSS)
Assay type: cell-based
In short: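 Flp-In T-REx 293 cells with tetracycline-induced human TRPV4, loaded with Fluo-4 for 60 min at 25 °C. Compound added 5 min before hypotonic mannitol/CaCl2 solution. Ca2+ signal recorded for 4.5 min on FDSS.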

[1] = Flp-In T-REx 293 cells expressing human TRPV4, examples listed under heading 'Human IC50<50 nM'
[2] = Flp-In T-REx 293 cells stably expressing human TRPV4, compounds listed by potency bin (<10 nM Tables 96-1/96-2, <3 nM Table 97)

T1 sequence (Q9HBA0 whole entry): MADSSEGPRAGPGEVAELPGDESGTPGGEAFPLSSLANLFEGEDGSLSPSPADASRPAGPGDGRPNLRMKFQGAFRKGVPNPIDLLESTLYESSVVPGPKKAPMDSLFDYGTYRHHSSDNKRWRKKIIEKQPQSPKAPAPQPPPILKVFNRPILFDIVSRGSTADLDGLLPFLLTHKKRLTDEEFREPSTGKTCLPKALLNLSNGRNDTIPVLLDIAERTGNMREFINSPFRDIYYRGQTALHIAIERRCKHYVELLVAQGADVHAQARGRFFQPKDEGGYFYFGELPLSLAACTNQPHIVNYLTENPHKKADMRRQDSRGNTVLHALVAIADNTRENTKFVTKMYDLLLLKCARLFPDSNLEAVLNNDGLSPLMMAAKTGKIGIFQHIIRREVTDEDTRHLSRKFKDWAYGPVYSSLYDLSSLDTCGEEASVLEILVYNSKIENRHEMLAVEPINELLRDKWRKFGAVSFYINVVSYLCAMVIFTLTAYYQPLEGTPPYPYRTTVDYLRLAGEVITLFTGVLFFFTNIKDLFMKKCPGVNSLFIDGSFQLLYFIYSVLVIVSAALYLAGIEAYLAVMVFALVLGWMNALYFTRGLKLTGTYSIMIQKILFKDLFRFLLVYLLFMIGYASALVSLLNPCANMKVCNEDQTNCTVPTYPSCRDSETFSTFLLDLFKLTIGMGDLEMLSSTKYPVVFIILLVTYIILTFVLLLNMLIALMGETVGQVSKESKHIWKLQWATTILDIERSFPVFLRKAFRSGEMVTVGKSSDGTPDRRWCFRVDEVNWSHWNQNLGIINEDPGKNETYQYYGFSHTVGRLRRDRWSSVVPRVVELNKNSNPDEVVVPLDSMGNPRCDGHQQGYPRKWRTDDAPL

Row | IC50 [1] | IC50 [2] | SMILES
1 | < 50 nM | < 10 nM | CC(C)c1cccc(C2(c3nc4c(c(=O)[nH]3)CN(C(=O)C(O)c3cccc(-c5ccnc(C(F)(F)F)c5)c3)CCC4)CC2)c1 (stereo not drawn) [51-1]
2 | < 50 nM | < 10 nM | O=C([C@H](O)c1cccc(C(F)(F)F)c1)N1CCCc2nc(C3(c4ccccc4)CC3)[nH]c(=O)c2C1 [17-37]
3 | < 50 nM | – | CC(C)(C)c1ccc(-c2cccc(CC(=O)N3CCc4nc(C5(c6cccc(Cl)c6)CC5)[nH]c(=O)c4C3)c2)cc1 [14-116]
4 | < 50 nM | < 10 nM | COCCn1cc(-c2cccc(C3(c4nc5c(c(=O)[nH]4)CN(C(=O)[C@H](O)c4cccc(C(F)(F)F)c4)CCC5)CC3)c2)cn1 [42-23]
5 | < 50 nM | < 10 nM | CC(C)c1csc(C2(c3nc4c(c(=O)[nH]3)CN(C(=O)C(F)(F)c3cccc(Cl)c3)CC4)CC2)c1 [21-4]
6 | < 50 nM | < 3 nM | O=C([C@H](O)c1cccc(-c2ccc(F)c(Cl)c2)c1)N1CCc2nc(C3(c4ccccc4)CC3)[nH]c(=O)c2C1 [44-82]
7 | < 50 nM | < 10 nM | O=C([C@H](O)c1cccc(-c2cc3ccccc3s2)c1)N1CCCc2nc(C3(c4cccc(Cl)c4)CC3)[nH]c(=O)c2C1 [50-2]
8 | < 50 nM | < 10 nM | O=C([C@H](O)c1cccc(C(F)(F)F)c1)N1CCc2nc(C3(c4cccc(-c5cccnc5)c4)CC3)[nH]c(=O)c2C1 [37-2]
9 | < 50 nM | < 3 nM | O=C([C@H](O)c1cccc(C(F)(F)F)c1)N1CCCc2nc(C3(c4cc(C5CCCC5)cs4)CC3)[nH]c(=O)c2C1 [30-1]
10 | < 50 nM | – | O=C([C@H](O)c1cccc(-c2ccc3ncccc3c2)c1)N1CCc2nc(C3(c4ccccc4)CC3)[nH]c(=O)c2C1 [44-88]
11 | < 50 nM | < 3 nM | O=C([C@H](O)c1cccc(-c2cc3ccccc3s2)c1)N1CCCc2nc(C3(c4ccccc4)CC3)[nH]c(=O)c2C1 [49-28]
12 | < 50 nM | – | O=C(C(O)c1cccc(C2CC2)c1)N1CCCc2nc(C3(c4ccccc4)CC3)[nH]c(=O)c2C1 (stereo not drawn) [17-58]
13 | < 50 nM | < 10 nM | O=C(N1CCCc2nc(C3(c4cccs4)CC3)[nH]c(=O)c2C1)C(F)(F)c1cccc(Cl)c1 [21-2]
14 | < 50 nM | < 3 nM | O=C([C@H](O)c1cccc(C(F)(F)F)c1)N1CCCc2nc(C3(c4cccc(C5CCCC5)c4)CC3)[nH]c(=O)c2C1 [31-5]
15 | < 50 nM | – | O=C([C@H](O)c1cccc(F)c1F)N1CCCc2nc(C3(c4cccs4)CC3)[nH]c(=O)c2C1 [18-11]
16 | < 50 nM | < 10 nM | CC(C)(C)c1cccc(-c2cccc([C@@H](O)C(=O)N3CCCc4nc(C5(c6cccc(Cl)c6)CC5)[nH]c(=O)c4C3)c2)c1 [50-7]
17 | < 50 nM | < 10 nM | O=C(C(O)c1cccc(-c2ccc(OC(F)(F)F)cc2)c1)N1CCCc2nc(C3(c4ccccc4)CC3)[nH]c(=O)c2C1 (stereo not drawn) [49-11]
18 | < 50 nM | < 10 nM | O=C([C@H](O)c1cccc(C(F)(F)F)c1)N1CCCc2nc(C3(c4cccc(F)c4)CC3)[nH]c(=O)c2C1 [17-36]
19 | < 50 nM | – | O=C([C@H](O)c1cccc(Cl)c1)N1CCc2nc(C3(c4ccc(Cl)cc4)CC3)[nH]c(=O)c2C1 [3-21]
20 | < 50 nM | < 10 nM | O=C([C@H](O)c1cccc(Cl)c1)N1CCCc2nc(C3(c4cccc(Cl)c4)CC3)[nH]c(=O)c2C1 [17-29]
21 | < 50 nM | < 10 nM | O=C(N1CCCc2nc(C3(c4ccccc4)CC3)[nH]c(=O)c2C1)C(F)(F)c1cccc(-c2cccc(C3CC3)c2)c1 [58-4]

Row | IC50 [1] | IC50 [2] | SMILES
22 | < 50 nM | < 10 nM | O=C([C@H](O)c1cccc(-c2cccc(OC(F)(F)F)c2)c1)N1CCc2nc(C3(c4cccc(Cl)c4)CC3)[nH]c(=O)c2C1 [45-7]
23 | < 50 nM | < 10 nM | O=C([C@H](O)c1cccc(C(F)(F)F)c1)N1CCCc2nc(C3(c4cc(CCC5COC5)cs4)CC3)[nH]c(=O)c2C1 [30-11]
24 | < 50 nM | < 3 nM | O=C(N1CCCc2nc(C3(c4cncc(-c5ccccc5)c4)CC3)[nH]c(=O)c2C1)C(F)(F)c1cccc(Cl)c1 [22-2]
25 | < 50 nM | < 10 nM | O=C([C@H](O)c1cccc(-c2ccc(Cl)c(OC(F)(F)F)c2)c1)N1CCc2nc(C3(c4ccccc4)CC3)[nH]c(=O)c2C1 [44-97]
26 | < 50 nM | < 3 nM | O=C([C@H](O)c1cccc(Cl)c1)N1CCc2nc(C3(c4cccc(C5CCCCC5)c4)CC3)[nH]c(=O)c2C1 [14-1]
27 | < 50 nM | < 10 nM | O=C(N1CCc2nc(C3(c4cncc(-c5ccccc5)c4)CC3)[nH]c(=O)c2C1)C(F)(F)c1cccc(Cl)c1 [22-5]
28 | < 50 nM | – | O=C([C@H](O)c1cccc(F)c1F)N1CCc2nc(C3(c4ccccc4)CC3)[nH]c(=O)c2C1 [2-34, (R)-(−)-6-(2-(2,3-difluorophenyl)-2-hydroxyacetyl)-2-(1-phenylcyclopropyl)-5,6,7,8-tetrahydropyrido[4,3-d]pyrimidin-4(3H)-one]
29 | < 50 nM | < 10 nM | CC(C)c1cccc(C2(c3nc4c(c(=O)[nH]3)CN(C(=O)[C@H](O)c3cccc(-c5cccc(OC(F)(F)F)c5)c3)CCC4)CC2)c1 [51-3]
30 | < 50 nM | < 10 nM | O=C([C@H](O)c1cccc(C(F)(F)F)c1)N1CCCc2nc(C3(c4cccc(-c5ccc(CN6CCC(OCc7ccccc7)CC6)cc5)c4)CC3)[nH]c(=O)c2C1 [42-95]
31 | < 50 nM | – | Cc1cc(C)cc(-c2cccc([C@@H](O)C(=O)N3CCc4nc(C5(c6ccccc6)CC5)[nH]c(=O)c4C3)c2)c1 [44-113]
32 | < 50 nM | < 10 nM | CC(C)c1csc(C2(c3nc4c(c(=O)[nH]3)CN(C(=O)Cc3cccc(-c5cccc(C(F)(F)F)c5)c3)CCC4)CC2)c1 [18-29]
33 | < 50 nM | < 10 nM | O=C([C@H](O)c1cccc(Cl)c1)N1CCc2nc(C3(c4cccc(-c5ccccc5)c4)CC3)[nH]c(=O)c2C1 [14-10]
34 | < 50 nM | < 10 nM | O=C([C@H](O)c1cccc(C(F)(F)F)c1)N1CCCc2nc(C3(c4cccc(-c5ccccc5)c4)CC3)[nH]c(=O)c2C1 [42-16]
35 | < 50 nM | – | O=C(C(O)c1cccc(SC(F)(F)F)c1)N1CCc2nc(C3(c4cccc(F)c4)CC3)[nH]c(=O)c2C1 (stereo not drawn) [14-27]
36 | < 50 nM | < 3 nM | O=C([C@H](O)c1cccc(-c2cccc(C(F)(F)F)c2)c1)N1CCc2nc(C3(c4ccccc4)CC3)[nH]c(=O)c2C1 [44-71]
37 | < 50 nM | < 10 nM | O=C([C@H](O)c1cccc(Cl)c1)N1CCc2nc(C3(c4cncc(C5CCCCC5)c4)CC3)[nH]c(=O)c2C1 [25-2]
38 | < 50 nM | – | O=C([C@H](O)c1cccc(C(F)(F)F)c1)N1CCCc2nc(C3(c4cncc(Br)c4)CC3)[nH]c(=O)c2C1 [19-6]
39 | < 50 nM | < 10 nM | O=C([C@H](O)c1cccc(-c2cccc(C3CC3)c2)c1)N1CCCc2nc(C3(c4ccccc4)CC3)[nH]c(=O)c2C1 [49-47]
40 | < 50 nM | < 10 nM | O=C(CN1CCc2ccccc21)N1CC=C(c2cccc(C3(c4nc5c(c(=O)[nH]4)CN(C(=O)[C@H](O)c4cccc(C(F)(F)F)c4)CCC5)CC3)c2)CC1 [42-74]
41 | < 50 nM | < 10 nM | O=C(Cc1cccc(-c2coc3ccccc23)c1)N1CCCc2nc(C3(c4cccc(Cl)c4)CC3)[nH]c(=O)c2C1 [17-118]
42 | < 50 nM | < 3 nM | CC(C)c1csc(C2(c3nc4c(c(=O)[nH]3)CN(C(=O)C(F)(F)c3cccc(Cl)c3)CCC4)CC2)c1 [21-3]
